Source: ChEMBL document CHEMBL5352421, “Identification of novel piperazine-tethered phthalazines as selective CDK1 inhibitors endowed with in vitro anticancer activity toward the pancreatic cancer” (Eur J Med Chem, 2022)

Legend:
MCF7 = assay: Antiproliferative activity against human MCF7 cells assessed as growth inhibition incubated at 10 uM for 24 hrs by MTT assay relative to control; format: functional; details: read-out: GI
[1] = target: T1, Tyrosine-protein kinase receptor UFO (Homo sapiens, UniProt P30530); assay: Inhibition of AXL (unknown origin) by FRET assay
T1 sequence (P30530 whole entry): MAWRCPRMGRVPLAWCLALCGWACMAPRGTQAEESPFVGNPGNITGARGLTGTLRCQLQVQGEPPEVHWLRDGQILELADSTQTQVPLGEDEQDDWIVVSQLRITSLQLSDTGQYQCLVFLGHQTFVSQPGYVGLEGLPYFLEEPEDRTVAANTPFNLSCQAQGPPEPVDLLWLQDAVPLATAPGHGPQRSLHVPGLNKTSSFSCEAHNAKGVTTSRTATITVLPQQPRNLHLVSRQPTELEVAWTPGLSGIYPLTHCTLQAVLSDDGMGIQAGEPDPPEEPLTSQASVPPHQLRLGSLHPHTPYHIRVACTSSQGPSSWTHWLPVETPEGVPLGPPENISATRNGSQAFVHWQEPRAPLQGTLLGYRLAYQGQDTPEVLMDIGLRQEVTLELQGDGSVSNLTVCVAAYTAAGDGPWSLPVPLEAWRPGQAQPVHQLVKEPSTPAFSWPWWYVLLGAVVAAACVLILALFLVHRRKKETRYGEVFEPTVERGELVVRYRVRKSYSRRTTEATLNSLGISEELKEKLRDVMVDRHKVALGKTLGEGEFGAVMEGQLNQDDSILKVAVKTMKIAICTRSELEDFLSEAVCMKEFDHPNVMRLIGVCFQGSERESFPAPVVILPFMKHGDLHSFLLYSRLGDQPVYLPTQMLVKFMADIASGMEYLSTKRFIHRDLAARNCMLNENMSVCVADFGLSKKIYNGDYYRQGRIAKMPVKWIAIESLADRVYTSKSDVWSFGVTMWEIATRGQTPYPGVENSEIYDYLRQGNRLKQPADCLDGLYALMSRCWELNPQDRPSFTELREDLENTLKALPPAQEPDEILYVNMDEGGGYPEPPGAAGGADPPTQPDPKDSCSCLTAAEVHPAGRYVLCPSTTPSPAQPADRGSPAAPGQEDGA

G-361 = assay: Antiproliferative activity against human G-361 cells assessed as growth inhibition incubated at 10 uM for 24 hrs by MTT assay relative to control; format: functional; details: read-out: GI
[2] = Antiproliferative activity against human MDA-PATC53 cells assessed as growth inhibition incubated for 24 hrs by MTT assay; format: functional, cell-based; details: MDA-PATC53, 24 h
KG-1 = assay: Antiproliferative activity against human KG-1 cells assessed as growth inhibition incubated at 10 uM for 24 hrs by MTT assay relative to control; format: functional; details: read-out: GI
[3] = target: Protein-tyrosine kinase 2-beta (Homo sapiens, UniProt Q14289); assay: Inhibition of PTK2B (unknown origin) by FRET assay
Protein-tyrosine kinase 2-beta, sequence (Q14289 whole entry): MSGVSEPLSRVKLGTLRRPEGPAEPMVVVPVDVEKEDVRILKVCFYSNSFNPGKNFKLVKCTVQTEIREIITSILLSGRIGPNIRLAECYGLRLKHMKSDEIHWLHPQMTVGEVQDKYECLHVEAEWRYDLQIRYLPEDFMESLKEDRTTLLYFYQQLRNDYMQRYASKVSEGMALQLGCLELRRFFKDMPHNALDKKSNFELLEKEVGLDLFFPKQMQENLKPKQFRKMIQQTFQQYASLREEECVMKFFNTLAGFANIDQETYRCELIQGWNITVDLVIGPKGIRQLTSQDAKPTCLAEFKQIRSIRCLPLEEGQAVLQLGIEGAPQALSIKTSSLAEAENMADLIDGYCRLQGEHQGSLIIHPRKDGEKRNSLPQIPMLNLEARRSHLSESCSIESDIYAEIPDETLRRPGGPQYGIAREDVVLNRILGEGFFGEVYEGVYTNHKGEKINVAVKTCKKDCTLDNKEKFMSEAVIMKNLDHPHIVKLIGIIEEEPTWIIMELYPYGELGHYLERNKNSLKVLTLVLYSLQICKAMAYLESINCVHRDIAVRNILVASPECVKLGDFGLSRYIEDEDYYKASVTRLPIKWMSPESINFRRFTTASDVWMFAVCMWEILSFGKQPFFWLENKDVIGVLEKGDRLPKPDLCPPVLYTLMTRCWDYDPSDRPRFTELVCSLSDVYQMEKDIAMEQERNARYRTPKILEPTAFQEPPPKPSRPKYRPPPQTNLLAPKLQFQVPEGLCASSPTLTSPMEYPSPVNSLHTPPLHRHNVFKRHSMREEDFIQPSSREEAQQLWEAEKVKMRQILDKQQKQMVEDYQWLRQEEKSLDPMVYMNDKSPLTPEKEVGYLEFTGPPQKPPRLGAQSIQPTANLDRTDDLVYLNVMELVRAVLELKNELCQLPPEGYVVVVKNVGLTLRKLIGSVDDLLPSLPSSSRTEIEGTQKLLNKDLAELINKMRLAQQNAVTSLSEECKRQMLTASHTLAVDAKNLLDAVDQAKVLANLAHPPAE

SK-MEL-1 = assay: Antiproliferative activity against human SK-MEL-1 cells assessed as growth inhibition incubated at 10 uM for 24 hrs by MTT assay relative to control; format: functional; details: read-out: GI
[4] = target: Insulin-like growth factor 1 receptor (Homo sapiens, UniProt P08069); assay: Inhibition of IGF1R (unknown origin) by FRET assay
Insulin-like growth factor 1 receptor, sequence (P08069 31-736 limits assumed): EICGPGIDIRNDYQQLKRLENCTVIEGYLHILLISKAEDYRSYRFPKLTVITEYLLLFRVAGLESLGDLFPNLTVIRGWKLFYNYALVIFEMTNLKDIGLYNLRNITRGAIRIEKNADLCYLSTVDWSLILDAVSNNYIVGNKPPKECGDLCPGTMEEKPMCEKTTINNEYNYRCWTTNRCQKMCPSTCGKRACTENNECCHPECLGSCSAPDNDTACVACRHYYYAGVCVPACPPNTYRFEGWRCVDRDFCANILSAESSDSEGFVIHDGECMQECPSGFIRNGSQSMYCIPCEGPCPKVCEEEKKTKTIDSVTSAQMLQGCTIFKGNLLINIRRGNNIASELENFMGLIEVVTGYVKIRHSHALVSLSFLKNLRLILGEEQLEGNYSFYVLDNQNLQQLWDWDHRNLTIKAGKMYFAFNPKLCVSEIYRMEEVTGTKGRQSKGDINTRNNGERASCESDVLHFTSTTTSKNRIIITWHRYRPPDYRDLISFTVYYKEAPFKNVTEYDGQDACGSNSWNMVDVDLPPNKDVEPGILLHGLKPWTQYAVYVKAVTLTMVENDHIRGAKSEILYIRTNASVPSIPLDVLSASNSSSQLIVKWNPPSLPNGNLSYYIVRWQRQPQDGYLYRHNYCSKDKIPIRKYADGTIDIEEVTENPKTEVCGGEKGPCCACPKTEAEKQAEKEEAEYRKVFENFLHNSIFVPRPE
Insulin-like growth factor 1 receptor, sequence (P08069 741-1367 limits assumed): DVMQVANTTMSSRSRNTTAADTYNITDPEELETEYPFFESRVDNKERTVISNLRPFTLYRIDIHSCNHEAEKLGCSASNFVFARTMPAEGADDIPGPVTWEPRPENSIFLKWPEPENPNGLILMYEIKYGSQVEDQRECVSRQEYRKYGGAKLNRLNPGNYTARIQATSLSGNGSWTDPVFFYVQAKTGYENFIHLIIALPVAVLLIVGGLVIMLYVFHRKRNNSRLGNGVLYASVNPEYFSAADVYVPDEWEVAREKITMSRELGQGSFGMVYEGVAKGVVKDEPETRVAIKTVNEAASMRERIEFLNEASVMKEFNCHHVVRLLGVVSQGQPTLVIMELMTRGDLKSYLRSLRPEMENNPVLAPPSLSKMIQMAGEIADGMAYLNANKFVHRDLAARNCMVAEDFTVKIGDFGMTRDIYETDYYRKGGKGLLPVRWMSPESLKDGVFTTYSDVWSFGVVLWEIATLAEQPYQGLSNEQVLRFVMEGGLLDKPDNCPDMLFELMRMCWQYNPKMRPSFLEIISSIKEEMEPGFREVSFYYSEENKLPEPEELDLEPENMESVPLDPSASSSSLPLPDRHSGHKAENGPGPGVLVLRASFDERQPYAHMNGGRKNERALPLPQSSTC

T84 = assay: Antiproliferative activity against human T84 cells assessed as growth inhibition incubated at 10 uM for 24 hrs by MTT assay relative to control; format: functional; details: read-out: GI
[5] = target: Cyclin-dependent kinase 1 (Homo sapiens, UniProt P06493); assay: Inhibition of CDK1 (unknown origin) by FRET assay
Cyclin-dependent kinase 1, sequence (P06493 whole entry): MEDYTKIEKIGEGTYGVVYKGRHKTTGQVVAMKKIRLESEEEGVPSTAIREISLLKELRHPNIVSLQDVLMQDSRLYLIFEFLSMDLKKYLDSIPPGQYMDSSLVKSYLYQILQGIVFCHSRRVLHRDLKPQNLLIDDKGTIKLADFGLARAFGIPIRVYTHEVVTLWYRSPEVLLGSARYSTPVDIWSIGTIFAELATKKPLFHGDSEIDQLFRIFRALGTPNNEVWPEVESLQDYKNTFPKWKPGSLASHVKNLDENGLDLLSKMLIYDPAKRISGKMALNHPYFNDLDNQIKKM

[6] = Antiproliferative activity against human PL45 cells assessed as growth inhibition incubated for 24 hrs by MTT assay; format: functional, cell-based; details: PL45, 24 h
[7] = Antiproliferative activity against human MDA-PATC53 cells assessed as growth inhibition incubated at 10 uM for 24 hrs by MTT assay relative to control; format: functional; details: read-out: GI
[8] = Selectivity index, ratio of IC50 for CDK5 (unknown origin) to CDK1 (unknown origin)
MOLT-4 = assay: Antiproliferative activity against human MOLT-4 cells assessed as growth inhibition incubated at 10 uM for 24 hrs by MTT assay relative to control; format: functional; details: read-out: GI
BT-549 = assay: Antiproliferative activity against human BT-549 cells assessed as growth inhibition incubated at 10 uM for 24 hrs by MTT assay relative to control; format: functional; details: read-out: GI
[9] = target: Fibroblast growth factor receptor (Homo sapiens, UniProt P22607+P11362+P22455+P21802); assay: Inhibition of FGFR (unknown origin) by FRET assay; format: protein assay
[10] = Selectivity index, ratio of IC50 for CDK2 (unknown origin) to CDK1 (unknown origin)
[11] = target: Cyclin-dependent kinase 5 (Homo sapiens, UniProt Q00535); assay: Inhibition of CDK5 (unknown origin) by FRET assay
Cyclin-dependent kinase 5, sequence (Q00535 whole entry): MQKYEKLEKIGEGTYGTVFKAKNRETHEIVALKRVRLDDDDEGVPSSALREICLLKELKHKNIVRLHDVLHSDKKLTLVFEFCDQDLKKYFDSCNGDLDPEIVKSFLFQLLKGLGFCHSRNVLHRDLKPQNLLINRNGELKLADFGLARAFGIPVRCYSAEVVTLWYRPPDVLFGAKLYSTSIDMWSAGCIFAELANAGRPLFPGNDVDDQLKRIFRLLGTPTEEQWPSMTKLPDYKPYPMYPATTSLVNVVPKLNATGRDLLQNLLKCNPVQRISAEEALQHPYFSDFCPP

A-375 = assay: Antiproliferative activity against human A-375 cells assessed as growth inhibition incubated at 10 uM for 24 hrs by MTT assay relative to control; format: functional; details: read-out: GI
HT-29 = assay: Antiproliferative activity against human HT-29 cells assessed as growth inhibition incubated at 10 uM for 24 hrs by MTT assay relative to control; format: functional; details: read-out: GI
[12] = target: Cyclin-dependent kinase 2 (Homo sapiens, UniProt P24941); assay: Inhibition of CDK2 (unknown origin) by FRET assay
[13] = target: Tyrosine-protein kinase JAK1 (Homo sapiens, UniProt P23458); assay: Inhibition of JAK1 (unknown origin) by FRET assay
Tyrosine-protein kinase JAK1, sequence (P23458 whole entry): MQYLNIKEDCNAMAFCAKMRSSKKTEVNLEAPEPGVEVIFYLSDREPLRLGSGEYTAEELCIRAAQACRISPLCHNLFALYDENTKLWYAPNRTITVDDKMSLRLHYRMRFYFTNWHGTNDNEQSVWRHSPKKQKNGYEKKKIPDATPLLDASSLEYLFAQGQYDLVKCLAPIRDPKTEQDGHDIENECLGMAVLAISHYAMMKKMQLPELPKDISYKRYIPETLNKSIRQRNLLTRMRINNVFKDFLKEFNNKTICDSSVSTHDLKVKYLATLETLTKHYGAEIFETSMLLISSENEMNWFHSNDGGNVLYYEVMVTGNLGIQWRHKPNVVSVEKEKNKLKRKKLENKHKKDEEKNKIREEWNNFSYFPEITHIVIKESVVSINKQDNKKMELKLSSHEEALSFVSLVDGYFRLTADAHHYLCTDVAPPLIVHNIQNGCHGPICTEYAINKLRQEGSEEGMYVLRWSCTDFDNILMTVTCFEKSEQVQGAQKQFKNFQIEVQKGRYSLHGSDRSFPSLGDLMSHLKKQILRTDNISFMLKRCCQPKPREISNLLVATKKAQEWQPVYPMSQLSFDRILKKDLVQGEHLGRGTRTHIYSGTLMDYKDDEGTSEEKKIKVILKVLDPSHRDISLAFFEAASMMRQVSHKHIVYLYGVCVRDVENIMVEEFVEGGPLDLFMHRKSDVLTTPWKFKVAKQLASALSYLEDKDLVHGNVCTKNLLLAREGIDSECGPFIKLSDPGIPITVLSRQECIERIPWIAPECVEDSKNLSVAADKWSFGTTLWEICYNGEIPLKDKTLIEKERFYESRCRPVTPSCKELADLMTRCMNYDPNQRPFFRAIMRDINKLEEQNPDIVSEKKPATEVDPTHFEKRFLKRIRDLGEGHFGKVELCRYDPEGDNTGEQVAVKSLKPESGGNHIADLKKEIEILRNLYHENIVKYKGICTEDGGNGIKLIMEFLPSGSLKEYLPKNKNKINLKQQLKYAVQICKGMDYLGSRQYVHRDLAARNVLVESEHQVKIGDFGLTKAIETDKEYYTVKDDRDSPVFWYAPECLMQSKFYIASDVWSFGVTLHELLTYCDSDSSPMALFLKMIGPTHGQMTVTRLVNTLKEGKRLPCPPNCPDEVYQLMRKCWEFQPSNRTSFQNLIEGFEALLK

[14] = Antiproliferative activity against human PL45 cells assessed as growth inhibition incubated at 10 uM for 24 hrs by MTT assay relative to control; format: functional; details: read-out: GI
[15] = target: Serine/threonine-protein kinase B-raf (Homo sapiens, UniProt P15056); assay: Inhibition of BRAF (unknown origin) by FRET assay
Serine/threonine-protein kinase B-raf, sequence (P15056 whole entry): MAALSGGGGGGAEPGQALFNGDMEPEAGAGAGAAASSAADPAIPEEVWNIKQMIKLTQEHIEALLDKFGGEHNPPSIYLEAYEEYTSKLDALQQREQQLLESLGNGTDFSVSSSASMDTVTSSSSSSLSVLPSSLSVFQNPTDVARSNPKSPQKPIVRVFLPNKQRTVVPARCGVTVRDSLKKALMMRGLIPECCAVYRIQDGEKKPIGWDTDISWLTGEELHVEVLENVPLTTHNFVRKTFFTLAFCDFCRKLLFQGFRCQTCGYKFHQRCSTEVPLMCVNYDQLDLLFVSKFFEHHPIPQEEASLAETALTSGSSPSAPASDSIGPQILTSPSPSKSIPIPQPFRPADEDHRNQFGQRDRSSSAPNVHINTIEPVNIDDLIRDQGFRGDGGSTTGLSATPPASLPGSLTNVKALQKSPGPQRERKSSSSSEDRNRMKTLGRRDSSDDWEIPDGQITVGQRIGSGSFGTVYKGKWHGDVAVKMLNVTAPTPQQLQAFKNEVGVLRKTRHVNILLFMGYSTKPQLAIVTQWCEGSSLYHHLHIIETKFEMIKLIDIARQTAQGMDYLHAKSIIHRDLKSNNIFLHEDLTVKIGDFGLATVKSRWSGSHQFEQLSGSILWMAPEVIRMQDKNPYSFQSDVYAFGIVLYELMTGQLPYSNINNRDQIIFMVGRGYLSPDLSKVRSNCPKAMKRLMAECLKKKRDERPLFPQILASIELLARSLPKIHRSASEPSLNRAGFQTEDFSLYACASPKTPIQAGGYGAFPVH

Row | Structure (SMILES) | inhibition of growth at 10 µM (MCF7) | IC50 [1] | inhibition of growth at 10 µM (G-361) | IC50 [2] | inhibition of growth at 10 µM (KG-1) | IC50 [3] | inhibition of growth at 10 µM (SK-MEL-1) | IC50 [4] | inhibition of growth at 10 µM (T84) | IC50 [5] | IC50 [6] | inhibition of growth at 10 µM [7] | Ratio IC50 [8] | inhibition of growth at 10 µM (MOLT-4) | inhibition of growth at 10 µM (BT-549) | IC50 [9] | Ratio IC50 [10] | IC50 [11] | inhibition of growth at 10 µM (A-375) | inhibition of growth at 10 µM (HT-29) | further results
1 | O=C(c1ccc(Cl)cc1)N1CCN(c2nnc(Cc3ccccc3)c3ccccc23)CC1 | 18.6% | 3510 nM | 24.7% | 13 µM | 8.36% | 3.5 µM | 10.4% | 8.75 µM | 16.7% | 114 nM | 8450 nM | 45.1% | 7.32 | 12.1% | 0.65% | 2.628 µM | 1.21 | 835 nM | 15.3% | 4.9% | IC50 [12]: 138 nM; IC50 [13]: 3.39 µM; inhibition of growth at 10 µM [14]: 57.4%; IC50 [15]: 1.48 µM
2 | COc1ccc(Cc2nnc(N3CCN(C(=S)Nc4ccc(Cl)cc4)CC3)c3ccccc23)cc1 | 71.9% | 2170 nM | 72.3% | 1.62 µM | 63.9% | 2.37 µM | 64.7% | 7.44 µM | 81.4% | 49.5 nM | 1890 nM | 85.8% | 14.5 | 78.4% | 75.4% | 4.354 µM | 10.8 | 716 nM | 85.6% | 80.1% | IC50 [12]: 534 nM; IC50 [13]: 4.15 µM; inhibition of growth at 10 µM [14]: 86.4%; IC50 [15]: 2.47 µM
3 | S=C(Nc1ccc(Cl)cc1)N1CCN(c2nnc(Cc3ccccc3)c3ccccc23)CC1 | 7.64% | 3630 nM | 1.08% | 11.9 µM | 8.92% | 5.21 µM | 5.4% | 6.3 µM | 12.2% | 109 nM | 6750 nM | 49.3% | 3.29 | 19.6% | 18.6% | 5.278 µM | 3.13 | 358 nM | 8.39% | 10.8% | IC50 [12]: 341 nM; IC50 [13]: 6.61 µM; inhibition of growth at 10 µM [14]: 64.1%; IC50 [15]: 4.99 µM
4 | COc1ccc(C(=O)N2CCN(c3nnc(Cc4ccccc4)c4ccccc34)CC2)cc1 | 4.09% | 1520 nM | 3.45% | 14.3 µM | 0.91% | 6.38 µM | 11.8% | 4.08 µM | 2% | 83.1 nM | 4850 nM | 42% | 7.29 | 1.02% | 5.26% | 8.605 µM | 3.62 | 606 nM | 5.3% | 1.58% | IC50 [12]: 301 nM; IC50 [13]: 5.55 µM; inhibition of growth at 10 µM [14]: 66.7%; IC50 [15]: 4.67 µM
5 | COc1ccc(Cc2nnc(N3CCN(C(=S)Nc4ccc(OC)cc4)CC3)c3ccccc23)cc1 | 73.1% | 8410 nM | 58.3% | 6.65 µM | 23.9% | 3.66 µM | 29.4% | 5.65 µM | 19.3% | 84.4 nM | 2100 nM | 66.4% | 5.36 | 31.4% | 23.7% | 3.566 µM | 4.7 | 452 nM | 47.9% | 51.7% | IC50 [12]: 396 nM; IC50 [13]: 1.54 µM; inhibition of growth at 10 µM [14]: 83.5%; IC50 [15]: 3.05 µM
6 | COc1ccc(Cc2nnc(N3CCN(C(=O)Nc4ccccc4)CC3)c3ccccc23)cc1 | 33.4% | 2370 nM | 29.8% | 11.3 µM | 49.7% | 5.82 µM | 27.1% | 5.42 µM | 53.6% | 83.2 nM | 2980 nM | 46.3% | 7.22 | 27.8% | 56% | 2.628 µM | 6.19 | 601 nM | 36.1% | 51.3% | IC50 [12]: 515 nM; IC50 [13]: 2.05 µM; inhibition of growth at 10 µM [14]: 73.6%; IC50 [15]: 4.75 µM
7 | O=C(Nc1ccccc1)N1CCN(c2nnc(Cc3ccccc3)c3ccccc23)CC1 | 18.4% | 7530 nM | 23.8% | 2.97 µM | 29.7% | 2.49 µM | 49.7% | 1.27 µM | 63.1% | 53.8 nM | 1650 nM | 77.9% | 2.95 | 41% | 76.5% | 2.579 µM | 5.31 | 159 nM | 62% | 36.2% | IC50 [12]: 286 nM; IC50 [13]: 3.63 µM; inhibition of growth at 10 µM [14]: 87.4%; IC50 [15]: 9.31 µM
8 | S=C(Nc1ccccc1)N1CCN(c2nnc(Cc3ccccc3)c3ccccc23)CC1 | 64.6% | 1260 nM | 58.9% | 1.61 µM | 61.9% | 5.23 µM | 50.9% | 2.37 µM | 56% | 70 nM | 2540 nM | 85.2% | 13.5 | 43% | 42.1% | 2.507 µM | 3.42 | 947 nM | 38.2% | 20.7% | IC50 [12]: 240 nM; IC50 [13]: 4.97 µM; inhibition of growth at 10 µM [14]: 78.4%; IC50 [15]: 8.75 µM
9 | CCc1cnn2c(NCc3ccc[n+]([O-])c3)cc(N3CCCC[C@H]3CCO)nc12 [DINACICLIB] |  |  |  | 0.024 µM |  |  |  |  |  |  | 15 nM |  |  |  |  |  |  |  |  |  | 
